Where “and” joins values, the source holds several entries; their conditions need not be identical. Identical values can stand only once.
What was measured:
steroid sulphatase = target: T1, steroid sulphatase (Homo sapiens, UniProt P08842); settings: cited from earlier work
T1 sequence (P08842 22-583): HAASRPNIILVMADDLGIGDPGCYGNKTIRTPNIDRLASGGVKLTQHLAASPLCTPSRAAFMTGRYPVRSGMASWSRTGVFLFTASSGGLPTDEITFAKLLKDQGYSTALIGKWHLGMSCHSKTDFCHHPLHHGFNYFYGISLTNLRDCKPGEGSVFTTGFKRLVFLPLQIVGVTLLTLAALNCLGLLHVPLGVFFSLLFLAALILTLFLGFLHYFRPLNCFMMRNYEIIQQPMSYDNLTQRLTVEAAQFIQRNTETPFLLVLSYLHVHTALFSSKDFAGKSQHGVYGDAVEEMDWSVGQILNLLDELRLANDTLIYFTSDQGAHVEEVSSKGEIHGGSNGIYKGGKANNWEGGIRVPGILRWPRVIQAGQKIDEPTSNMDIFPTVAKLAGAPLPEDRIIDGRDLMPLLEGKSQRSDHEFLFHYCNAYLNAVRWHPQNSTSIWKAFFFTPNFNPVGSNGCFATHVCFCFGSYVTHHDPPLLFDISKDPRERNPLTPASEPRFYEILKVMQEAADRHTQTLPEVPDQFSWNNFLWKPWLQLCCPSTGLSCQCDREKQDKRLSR

STS = target: T2, STS (Homo sapiens, UniProt P08842); assay: biochemical
T2 construct: can be assessed using either intact MCF-7 breast cancer cells or placental microsomes
T2 sequence (P08842 22-583): T1 sequence (P08842 22-583)

[1] = system: rats (uterotrophic activity); settings: cited from earlier work
[2] = target: T3, human placental steroid sulphatase (Homo sapiens, UniProt P08842); assay: Inhibition of oestrone sulphatase activity in human placental microsomes; assay type: biochemical
T3 construct: Placental microsomes (100000 g fraction) were prepared from a positive-positive human placenta from a normal-term pregnancy; from tissue; host or cells: human placenta, microsomal fraction
T3 sequence (P08842 22-583): T1 sequence (P08842 22-583)

[3] = target: T4, E1-STS in intact MCF-7 cells (Homo sapiens, UniProt P08842); parameters: dose or concentration left out as unconfirmed; settings: cited from earlier work
T4 construct: endogenous in cells; host or cells: MCF-7 human breast cancer cells
T4 sequence (P08842 22-583): T1 sequence (P08842 22-583)

breast tumour cells = settings: cited from earlier work
[4] = system: ovariectomised rats (uterine growth); assay: In vivo oestrogenicity, uterine growth in ovariectomised rats (Protocol 4); parameters: species or system rat; settings: 10 mg/Kg/day for five days orally, uterine weight
Experimental: The compounds of the present invention may be studied using an animal model, in particular in ovariectomised rats. In this model, compounds which are oestrogenic stimulate uterine growth.
The compound (10 mg/Kg day for five days) was administered orally to rats with another group of animals receiving vehicle only (propylene glycol). A further group received the estrogenic compound EMATE subcutaneously in an amount of […] for five days. At the end of the study uteri were obtained and weighed with the results being expressed as uterine weight/whole body weight×100.

rat liver STS = target: T5, rat liver STS (Rattus norvegicus, UniProt P15589); assay: Inhibition of oestrone sulphatase activity in vivo, rat liver (Protocol 3); settings: rats; 10 mg/Kg/day for five days orally
T5 construct: samples of liver tissue were obtained and oestrone sulphatase activity assayed; from tissue; host or cells: rat liver
T5 sequence (P15589 20-577): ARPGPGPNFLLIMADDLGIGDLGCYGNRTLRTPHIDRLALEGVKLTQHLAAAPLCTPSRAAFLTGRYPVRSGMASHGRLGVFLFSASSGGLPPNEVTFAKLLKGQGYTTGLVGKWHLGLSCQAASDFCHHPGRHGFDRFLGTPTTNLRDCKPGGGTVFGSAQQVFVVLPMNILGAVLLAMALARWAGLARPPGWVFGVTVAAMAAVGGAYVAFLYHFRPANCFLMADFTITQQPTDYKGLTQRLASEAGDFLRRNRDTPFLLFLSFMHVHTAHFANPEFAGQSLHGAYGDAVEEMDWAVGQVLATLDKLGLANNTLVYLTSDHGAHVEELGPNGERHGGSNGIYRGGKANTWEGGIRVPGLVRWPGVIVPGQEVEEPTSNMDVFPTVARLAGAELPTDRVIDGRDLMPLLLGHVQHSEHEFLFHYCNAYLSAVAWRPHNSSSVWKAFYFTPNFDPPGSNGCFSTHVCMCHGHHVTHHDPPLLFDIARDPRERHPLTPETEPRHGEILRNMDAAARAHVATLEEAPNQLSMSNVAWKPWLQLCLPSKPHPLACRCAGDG
Experimental: The compounds of the present invention may be studied using an animal model, in particular in ovariectomised rats. In this model compounds which are oestrogenic stimulate uterine growth.
The compound (10 mg/Kg/day for five days) was administered orally to rats with another group of animals receiving vehicle only (propylene glycol). A further group received the compound EMATE subcutaneously in an amount of 10 μg/day for five days. At the end of the study samples of liver tissue were obtained and oestrone sulphatase activity assayed using 3 H oestrone sulphate as the substrate as previously described (see PCT/GB95/02638).

[5] = read-out: Mean % Inhibition ± SD

For NS(=O)(=O)Oc1ccc2c3c(c(=O)oc2c1)CCCCC3 [667 Coumate, reference compound], the “times more potent than EMATE in vitro” value (steroid sulphatase) is given as ~3 times, the “667 Coumate value: % Inhibition” value (STS; 0.005 µM) is given as 5 nM = 63%Inhibition and 5 nM = 56%Inhibition and the inhibition at 0.005 µM (STS; read-out: 667 Coumate value: % Inhibition) is given as 63%.
For C[C@]12CC[C@@H]3c4ccc(OS(N)(=O)=O)cc4CC[C@H]3[C@@H]1CCC2=O [EMATE, estrone-3-O-sulfamate], the “oral uterotrophic activity, times higher than that of oestradiol” value [1] is listed as 100 times, the IC50 [2] is listed as 8 nM and the “inhibition of E1-STS activity” value [3] is listed as “more than 99%”.
In the case of C[C@]12CC[C@@H]3c4ccc(O)cc4CC[C@H]3[C@@H]1CC[C@@H]2O [Oestradiol, oestradiol], the “proliferative effect, fold greater than oestrone” value (breast tumour cells) is given as 10 fold.
With CCCN1C(=O)CC2C3CCc4cc(OS(N)(=O)=O)ccc4C3CC[C@]2(C)C1=O (some centres unmarked) [STX213] the “oestrogenicity (FIG. 2)” value [4] was “lack of oestrogenicity”.
With CCCN1C(=O)CC2C3CCc4cc(OS(N)(=O)=O)ccc4C3CC[C@]2(C)C1=O (some centres unmarked) [STX 213, 3Sulfamoyl-N-propyl-16,17-seco-estra-1,3,5(10)-triene-16,17-imide] the “inhibition of rat liver STS (FIG. 3)” value (rat liver STS) was “inhibition of rat liver STS”, the IC50 [2] was 1 nM and the inhibition at 0.0001 µM [2, 5] was 21.2 ± 0.8%. It also gave an inhibition at 0.001 µM [2, 5] of 49.3 ± 1.2%, an inhibition at 0.01 µM [2, 5] of 64.1 ± 4.6% and an inhibition at 0.1 µM [2, 5] of 84.6 ± 1.3%. It also gave an inhibition at 1 µM [2, 5] of 96.8 ± 0.8% and an inhibition at 10 µM [2, 5] of 99.3 ± 1.1%.
For C[C@]12CCC3c4ccc(OS(N)(=O)=O)cc4CCC3C1CC(=O)N(Cc1cccnc1)C2=O (some centres unmarked) [STX 237, 3-Sulfamoyl-N-(3-picolyl)-16,17-seco-estra-1,3,5(10)-triene-16,17-imide], the “oestrogenicity (FIG. 2)” value [4] was “lack of oestrogenicity”, the “inhibition of rat liver STS (FIG. 3)” value (rat liver STS) was “inhibition of rat liver STS” and the “inhibition of STS (in words)” value ([2]; in vitro) was “Good inhibition”. The “times more potent than EMATE” value ([2]; ratio of IC50 values versus EMATE) was 18 times.
